Reference: patent US6953855B2 (priority 1998, dated 2005)

Target: T1, muscle-type receptors (α1β1γδ subtype in human TE671/RD clonal cells) (Homo sapiens, UniProt P02708+P07510+Q07001)
T1 construct: endogenous in cells; host or cells: human TE671/RD rhabdomyosarcoma cells
Experiment: cell-based
Conditions: read-out: agonist activity, % of nicotine's response (human muscle)

T1 sequence (P02708 21-457): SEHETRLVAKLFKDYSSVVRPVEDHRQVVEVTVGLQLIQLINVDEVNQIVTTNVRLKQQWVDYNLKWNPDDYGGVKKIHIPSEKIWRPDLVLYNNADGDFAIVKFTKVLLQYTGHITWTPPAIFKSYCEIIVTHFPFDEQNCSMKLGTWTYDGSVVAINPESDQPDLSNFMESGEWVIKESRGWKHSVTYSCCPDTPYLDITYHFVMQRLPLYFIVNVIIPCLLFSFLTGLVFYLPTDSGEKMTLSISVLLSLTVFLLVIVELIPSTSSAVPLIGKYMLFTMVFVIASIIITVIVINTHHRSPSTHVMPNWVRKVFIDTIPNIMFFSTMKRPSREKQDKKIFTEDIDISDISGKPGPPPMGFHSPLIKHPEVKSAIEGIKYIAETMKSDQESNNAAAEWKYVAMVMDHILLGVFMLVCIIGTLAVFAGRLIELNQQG
T1 sequence (P11230 24-501 partner): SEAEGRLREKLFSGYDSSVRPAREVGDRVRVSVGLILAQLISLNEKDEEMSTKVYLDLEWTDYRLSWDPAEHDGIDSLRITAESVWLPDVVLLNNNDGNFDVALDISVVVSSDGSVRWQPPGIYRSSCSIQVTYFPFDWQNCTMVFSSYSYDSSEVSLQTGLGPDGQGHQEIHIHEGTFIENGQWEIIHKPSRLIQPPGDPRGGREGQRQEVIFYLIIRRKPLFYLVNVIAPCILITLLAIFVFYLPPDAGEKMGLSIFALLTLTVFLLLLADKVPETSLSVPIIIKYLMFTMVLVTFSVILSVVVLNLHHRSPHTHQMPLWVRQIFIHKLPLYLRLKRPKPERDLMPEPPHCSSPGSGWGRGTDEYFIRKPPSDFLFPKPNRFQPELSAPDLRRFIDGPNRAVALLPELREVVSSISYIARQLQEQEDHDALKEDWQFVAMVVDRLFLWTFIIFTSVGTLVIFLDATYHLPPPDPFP
T1 sequence (P07510 23-517): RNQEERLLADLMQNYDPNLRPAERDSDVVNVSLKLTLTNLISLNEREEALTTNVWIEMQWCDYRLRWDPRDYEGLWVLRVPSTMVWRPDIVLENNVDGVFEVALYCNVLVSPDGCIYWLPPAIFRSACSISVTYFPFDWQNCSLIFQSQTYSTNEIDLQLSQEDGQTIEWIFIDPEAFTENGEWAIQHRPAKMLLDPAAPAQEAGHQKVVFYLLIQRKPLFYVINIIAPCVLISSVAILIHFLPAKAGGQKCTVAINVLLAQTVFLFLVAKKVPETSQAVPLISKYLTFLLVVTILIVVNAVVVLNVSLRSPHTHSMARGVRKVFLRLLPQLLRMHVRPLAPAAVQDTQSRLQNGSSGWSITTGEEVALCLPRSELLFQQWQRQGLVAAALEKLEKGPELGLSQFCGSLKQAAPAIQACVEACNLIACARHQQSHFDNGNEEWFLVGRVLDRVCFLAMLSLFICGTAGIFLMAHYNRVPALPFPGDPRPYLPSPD
T1 sequence (Q07001 22-517): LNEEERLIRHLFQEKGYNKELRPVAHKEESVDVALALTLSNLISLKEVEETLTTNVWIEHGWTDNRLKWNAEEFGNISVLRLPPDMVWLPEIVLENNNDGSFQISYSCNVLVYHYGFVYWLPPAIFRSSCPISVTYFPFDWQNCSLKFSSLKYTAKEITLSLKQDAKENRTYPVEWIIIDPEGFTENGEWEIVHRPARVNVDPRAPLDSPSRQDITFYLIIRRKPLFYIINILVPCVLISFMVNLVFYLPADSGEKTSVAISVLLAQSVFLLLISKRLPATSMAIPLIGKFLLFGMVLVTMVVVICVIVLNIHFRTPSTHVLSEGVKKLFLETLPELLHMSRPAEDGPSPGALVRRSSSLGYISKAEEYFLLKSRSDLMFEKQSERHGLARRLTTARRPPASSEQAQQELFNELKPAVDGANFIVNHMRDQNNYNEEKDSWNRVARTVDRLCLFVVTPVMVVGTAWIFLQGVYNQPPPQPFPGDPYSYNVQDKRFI

Structure (SMILES) | activation at 100 µM [%]
COc1ccc(NC(=O)NC2C3CCN(CC3)C2Cc2cccnc2)c(OC)c1 (centres unmarked) [Compound 22, N-(2,4-dimethoxyphenyl)-N′-(2-((3-pyridinyl)methyl)-1-azabicyclo[2.2.2]oct-3-yl)urea] | 1 to 12
O=C(C=Cc1ccccc1)NC1C2CCN(CC2)C1Cc1cccnc1 (centres unmarked) [Compound 28, N-(2-((3-pyridinyl)methyl)-1-azabicyclo[2.2.2]oct-3-yl)3-phenylprop-2-enamide] | 1 to 12
COc1cccc(C=CC(=O)NC2C3CCN(CC3)C2Cc2cccnc2)c1 (centres unmarked) [Compound 32, N-(2-((3-pyridinyl)methyl)-1-azabicyclo[2.2.2]oct-3-yl)-3-(3-methoxyphenyl)prop-2-enamide] | 1 to 12
O=C(C=Cc1ccccc1O)NC1C2CCN(CC2)C1Cc1cccnc1 (centres unmarked) [Compound 34, N-(2-((3-pyridinyl)methyl)-1-azabicyclo[2.2.2]oct-3-yl)-3-(2-hydroxyphenyl)prop-2-enamide] | 1 to 12
O=C(Nc1ccc(Br)cc1)OC1C2CCN(CC2)C1Cc1cccnc1 (centres unmarked) [Compound 1, 2-((3-pyridinyl)methyl)-1-azabicyclo[2.2.2]oct-3-yl N-(4-bromophenyl)carbamate] | 1 to 12
COc1cccc(C(=O)NC2C3CCN(CC3)C2Cc2cccnc2)c1 (centres unmarked) [Compound 14, N-(2-((3-pyridinyl)methyl)-1-azabicyclo[2.2.2]oct-3-yl)-3-methoxybenzamide] | 1 to 12
O=C(Nc1ccc(Br)cc1)NC1C2CCN(CC2)C1Cc1cccnc1 (centres unmarked) [Compound 20, N-(4-bromophenyl)-N′-(2-((3-pyridinyl)methyl)-1-azabicyclo[2.2.2]oct-3-yl)urea] | 1 to 12
CSc1ccc(NC(=O)NC2C3CCN(CC3)C2Cc2cccnc2)cc1 (centres unmarked) [Compound 18, N-(4-methylthiophenyl)-N′-(2-((3-pyridinyl)methyl)-1-azabicyclo[2.2.2]oct-3-yl)urea] | 1 to 12
CSc1ccc(NC(=O)OC2C3CCN(CC3)C2Cc2cccnc2)cc1 (centres unmarked) [Compound 5, 2-((3-pyridinyl)methyl)-1-azabicyclo[2.2.2]oct-3-yl N-(4-methylthiophenyl)carbamate] | 1 to 12
O=C(C=Cc1ccc(Br)cc1)NC1C2CCN(CC2)C1Cc1cccnc1 (centres unmarked) [Compound 30, N-(2-((3-pyridinyl)methyl)-1-azabicyclo[2.2.2]oct-3-yl)-3-(4-bromophenyl)prop-2-enamide] | 1 to 12
O=C(Nc1ccc(F)cc1)OC1C2CCN(CC2)C1Cc1cccnc1 (centres unmarked) [Compound 3, 2-((3-pyridinyl)methyl)-1-azabicyclo[2.2.2]oct-3-yl N-(4-fluorophenyl)carbamate] | 1 to 12
COc1ccc(NC(=O)NC2C3CCN(CC3)C2Cc2cccnc2)cc1 (centres unmarked) [Compound 24, N-(4-methoxyphenyl)-N′-(2-((3-pyridinyl)methyl)-1-azabicyclo[2.2.2]oct-3-yl)urea] | 1 to 12
CN(C(=O)Nc1ccc(Br)cc1)C1C2CCN(CC2)C1Cc1cccnc1 (centres unmarked) [Compound 27, N-(4-bromophenyl)-N′-methyl-N′-(2-((3-pyridinyl)methyl)-1-azabicyclo [2.2.2]oct-3-yl)urea] | 1 to 12
O=C(NC1C2CCN(CC2)C1Cc1cccnc1)c1cccc(Br)c1 (centres unmarked) [Compound 15, N-(2-((3-pyridinyl)methyl)-1-azabicyclo[2.2.2]oct-3-yl)-3-bromobenzamide] | 1 to 12
O=C(C=Cc1ccc(Cl)cc1)NC1C2CCN(CC2)C1Cc1cccnc1 (centres unmarked) [Compound 29, N-(2-((3-pyridinyl)methyl)-1-azabicyclo[2.2.2]oct-3-yl)-3-(4-chlorophenyl)prop-2-enamide] | 1 to 12
CN(C)c1ccc(NC(=O)NC2C3CCN(CC3)C2Cc2cccnc2)cc1 (centres unmarked) [Compound 25, N-(4-dimethylaminophenyl)-N′-(2-((3-pyridinyl)methyl)-1-azabicyclo[2.2.2]oct-3-yl)urea] | 1 to 12
O=C(NC1C2CCN(CC2)C1Cc1cccnc1)c1ccc(F)cc1 (centres unmarked) [Compound 8, N-(2-((3-pyridinyl)methyl)-1-azabicyclo[2.2.2]oct-3-yl)-4-fluorobenzamide] | 1 to 12
O=C(C=Cc1cccc(O)c1)NC1C2CCN(CC2)C1Cc1cccnc1 (centres unmarked) [Compound 31, N-(2-((3-pyridinyl)methyl)-1-azabicyclo[2.2.2]oct-3-yl)-3-(3-hydroxyphenyl)prop-2-enamide] | 1 to 12
CN(C(=O)Nc1ccccc1)C1C2CCN(CC2)C1Cc1cccnc1 (centres unmarked) [Compound 26, N-phenyl-N′-methyl-N′-(2-((3-pyridinyl)methyl)-1-azabicyclo[2.2.2]oct-3-yl)urea] | 1 to 12
COc1ccccc1NC(=O)NC1C2CCN(CC2)C1Cc1cccnc1 (centres unmarked) [Compound 21, N-(2-methoxyphenyl)-N′-(2-((3-pyridinyl)methyl)-1-azabicyclo[2.2.2]oct-3-yl)urea] | 1 to 12
O=C(NC1C2CCN(CC2)C1Cc1cccnc1)c1ccc(Br)cc1 (centres unmarked) [Compound 10, N-(2-((3-pyridinyl)methyl)-1-azabicyclo[2.2.2]oct-3-yl)-4-bromobenzamide] | 1 to 12
O=C(C=Cc1ccccc1F)NC1C2CCN(CC2)C1Cc1cccnc1 (centres unmarked) [Compound 33, N-(2-((3-pyridinyl)methyl)-1-azabicyclo[2.2.2]oct-3-yl)-3-(2-fluorophenyl)prop-2-enamide] | 1 to 12
O=C(Nc1ccc(Oc2ccccc2)cc1)NC1C2CCN(CC2)C1Cc1cccnc1 (centres unmarked) [Compound 17, N-(4-phenoxyphenyl)-N′-(2-((3-pyridinyl)methyl)-1-azabicyclo[2.2.2]oct-3-yl)urea] | 1 to 12
O=C(Nc1cccc(F)c1)NC1C2CCN(CC2)C1Cc1cccnc1 (centres unmarked) [Compound 19, N-(3-fluorophenyl)-N′-(2-((3-pyridinyl)methyl)-1-azabicyclo[2.2.2]oct-3-yl)urea] | 1 to 12
O=C(Nc1ccccc1)NC1C2CCN(CC2)C1Cc1cccnc1 (centres unmarked) [Compound 16, N-phenyl-N′-(2-((3-pyridinyl)methyl)-1-azabicyclo[2.2.2]oct-3-yl)urea] | 1 to 12
COc1ccc(NC(=O)OC2C3CCN(CC3)C2Cc2cccnc2)cc1 (centres unmarked) [Compound 4, 2-((3-pyridinyl)methyl)-1-azabicyclo[2.2.2]oct-3-yl N-(4-methoxyphenyl)carbamate] | 1 to 12
O=C(NC1C2CCN(CC2)C1Cc1cccnc1)c1cc2ccccc2o1 (centres unmarked) [Compound 9, N-(2-((3-pyridinyl)methyl)-1-azabicyclo[2.2.2]oct-3-yl)benzofuran-2-carboxamide] | 1 to 12
O=C(Nc1ccc(Cl)c(Cl)c1)NC1C2CCN(CC2)C1Cc1cccnc1 (centres unmarked) [Compound 23, N-(3,4-dichlorophenyl)-N′-(2-((3-pyridinyl)methyl)-1-azabicyclo[2.2.2]oct-3-yl)urea] | 1 to 12
O=C(NC1C2CCN(CC2)C1Cc1cccnc1)c1ccccc1 (centres unmarked) [Compound 13, N-(2-((3-pyridinyl)methyl)-1-azabicyclo[2.2.2]oct-3-yl)benzamide] | 1 to 12
